Here are results for eight compounds from PubChem BioAssay (NCI).

Molecules are shown by their SMILES.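 Step 1: Grow cells in 96-well plates. Step 2: Expose to compound for 48 hours at 5 concentrations. Step 3: Interpolate endpoints linearly; if unreached, use highest concentration. Abbreviation: GI50, concentration required for 50% inhibition of growth. TGI denotes the concentration required for complete inhibition of growth.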 Where a SMILES comes first, the peptide text is derived from it. [ ]: non-standard residue; d: D form. Phe(F5) = N[CH](Cc1c(F)c(F)c(F)c(F)c1F)C(=O)O

Test systems include HCT-116 colon; HL-60(TB) leukemia; KM12 colon; MCF7 breast; MDA-MB-435; RPMI-8226 leukemia; SK-MEL-5 melanoma; SR leukemia; SW-620 colon; T-47D breast.
What all share (test): NCI-60 cell line screen, 48 h

`CCCN1C(=O)/C(=c2\sc3n(c2=O)C2C(NN=3)N(CC)C(=O)N2CC)c2ccccc21` (stereo unspecified): the GI50 is 0.404 µM in the assay with HCT-116 colon; 0.3 µM in the assay on HL-60(TB) leukemia; 0.41 µM with KM12 colon; 0.396 µM in the assay with MCF7 breast; 0.196 µM with MDA-MB-435; 0.427 µM in the assay on RPMI-8226 leukemia. Also, the GI50 in the assay on SK-MEL-5 melanoma was 0.369 µM; with SR leukemia it was 0.422 µM; with SW-620 colon it was 0.409 µM; in the assay with T-47D breast, 0.438 µM. Further, the TGI was 12.4 µM in the assay with HCT-116 colon; 1.03 µM in the assay with HL-60(TB) leukemia; 13.8 µM in the assay on KM12 colon; > 32.9 µM with MCF7 breast; 0.445 µM in the assay with MDA-MB-435; 6.48 µM in the assay with RPMI-8226 leukemia. In addition, the TGI in the assay on SK-MEL-5 melanoma is 3.15 µM; with SR leukemia it was 21.9 µM; in the assay with SW-620 colon, > 100 µM; in the assay on T-47D breast, > 88.7 µM.
For `NC(=O)[C@H]1CCN(c2ncnc(N)c2F)C[C@@H]1N1CCC[C@@H](Nc2cc(Cl)cc(C(F)(F)F)c2)C1=O`, the GI50 in the assay on HCT-116 colon was 15.5 µM; with HL-60(TB) leukemia, 20.5 µM; in the assay with KM12 colon, 6.31 µM; in the assay on MCF7 breast, 13.1 µM; with MDA-MB-435, 14.3 µM; in the assay on RPMI-8226 leukemia, 16.8 µM. For the same compound, the GI50 in the assay on SK-MEL-5 melanoma was 16.3 µM; in the assay on SR leukemia, 28.1 µM; with SW-620 colon, 25.6 µM; in the assay on T-47D breast, 7.7 µM. The TGI in the assay with HCT-116 colon was 43 µM; with HL-60(TB) leukemia it was 42.5 µM; in the assay with KM12 colon, > 100 µM; with MCF7 breast it was 52.4 µM; with MDA-MB-435, 39.5 µM; in the assay with RPMI-8226 leukemia, 56.3 µM. Moreover, the TGI with SK-MEL-5 melanoma was 30 µM; in the assay on SR leukemia, 83.8 µM; with SW-620 colon it was > 100 µM; with T-47D breast, 76 µM.
`CCn1c(-c2nonc2N)nc2cncc(C(=O)N3CCNCC3)c21`: the GI50 with HCT-116 colon, with HL-60(TB) leukemia, with KM12 colon, in the assay on MCF7 breast, in the assay on MDA-MB-435 and in the assay with RPMI-8226 leukemia was > 25 µM throughout. In addition, the GI50 in the assay with SK-MEL-5 melanoma, in the assay on SR leukemia, with SW-620 colon and in the assay with T-47D breast was > 25 µM in each case. Besides, the TGI with HCT-116 colon, in the assay on HL-60(TB) leukemia, in the assay with KM12 colon, in the assay on MCF7 breast, in the assay with MDA-MB-435 and in the assay with RPMI-8226 leukemia was > 25 µM in each case. For the same compound, the TGI in the assay with SK-MEL-5 melanoma, in the assay on SR leukemia, with SW-620 colon and in the assay on T-47D breast was > 25 µM each time.
With `O=C1c2ccccc2C(=O)N1CC1(C(=O)O)NCCS1(=O)=O` (stereo unspecified), the TGI in the assay with HCT-116 colon, with HL-60(TB) leukemia, with KM12 colon, in the assay on MCF7 breast, in the assay with MDA-MB-435 and in the assay with RPMI-8226 leukemia was > 100 µM throughout. In addition, the TGI in the assay with SK-MEL-5 melanoma, in the assay on SR leukemia, with SW-620 colon and in the assay on T-47D breast was > 100 µM throughout.
For `CCOC(=O)Cc1c[nH]c(=S)[nH]c1=O`, the GI50 in the assay on HCT-116 colon, in the assay with HL-60(TB) leukemia, in the assay on KM12 colon, in the assay with MCF7 breast, in the assay with MDA-MB-435 and in the assay on RPMI-8226 leukemia was > 100 µM in each case. Also, the GI50 in the assay on SK-MEL-5 melanoma, with SR leukemia, in the assay on SW-620 colon and in the assay on T-47D breast was > 100 µM each time. Further, the TGI in the assay on HCT-116 colon, in the assay on HL-60(TB) leukemia, with KM12 colon, in the assay on MCF7 breast, with MDA-MB-435 and with RPMI-8226 leukemia was > 100 µM throughout. In addition, the TGI with SK-MEL-5 melanoma, with SR leukemia, in the assay with SW-620 colon and with T-47D breast was > 100 µM in each case.
For the compound `CCN=C1C=CC(=C(c2ccc(N(C)C)cc2)c2ccc(N(C)C)cc2)c2ccccc21`, the GI50 is 0.0358 µM with HCT-116 colon; 0.0434 µM in the assay with HL-60(TB) leukemia; 0.0383 µM with KM12 colon; 0.141 µM in the assay on MCF7 breast; 0.0705 µM in the assay on MDA-MB-435; 0.0165 µM with RPMI-8226 leukemia. Moreover, the GI50 in the assay with SK-MEL-5 melanoma was 0.0609 µM; with SR leukemia, 0.0846 µM; in the assay on SW-620 colon, 0.113 µM; with T-47D breast, 0.0567 µM. In addition, the TGI in the assay with HCT-116 colon turned out to be 0.174 µM; in the assay with HL-60(TB) leukemia, 0.141 µM; in the assay on KM12 colon it was 0.18 µM; in the assay with MCF7 breast, 1.09 µM; with MDA-MB-435, 0.408 µM; in the assay with RPMI-8226 leukemia, 0.0555 µM. Further, the TGI in the assay with SK-MEL-5 melanoma came out at 0.213 µM; in the assay on SR leukemia it was 0.572 µM; with SW-620 colon, 1.11 µM; with T-47D breast, 1.52 µM.
In the case of `CC1=CC(=O)c2c(O)cccc2C1=O`, the TGI with HCT-116 colon amounted to 3.11 µM; with HL-60(TB) leukemia it was 0.398 µM; with KM12 colon it was 19.5 µM; in the assay on MCF7 breast, 3.9 µM; with MDA-MB-435 it was 3.26 µM; in the assay with RPMI-8226 leukemia, 1.83 µM. The TGI with SK-MEL-5 melanoma was 3.05 µM; in the assay on SR leukemia, 4.95 µM; with SW-620 colon, 4.15 µM; in the assay with T-47D breast, 2.22 µM.
On to `COC(=O)C(CC(C)C)NC(=O)C(Cc1cnc[nH]1)NC(=O)CNC(=O)C(NC(=O)C(C)NC(=O)C(Cc1c[nH]c2ccccc12)NC(=O)C(CCC(=O)O)NC(=O)C(N)Cc1c(F)c(F)c(F)c(F)c1F)C(C)C` (stereo unspecified) (H-[Phe(F5)]EWAVGHL-OMe; configuration not given here), for which the GI50 in the assay on HCT-116 colon, in the assay with HL-60(TB) leukemia, with KM12 colon, in the assay on RPMI-8226 leukemia, in the assay with SR leukemia and in the assay with SW-620 colon was > 100 µM in each case. Further, the TGI in the assay on HCT-116 colon is > 100 µM; in the assay on HL-60(TB) leukemia, > 100 µM; with KM12 colon, > 100 µM; in the assay with MCF7 breast it was > 12.5 µM; in the assay with MDA-MB-435 it was > 12.5 µM; in the assay with RPMI-8226 leukemia, > 100 µM. Besides, the TGI was > 12.5 µM with SK-MEL-5 melanoma, > 100 µM in the assay with SR leukemia, > 100 µM in the assay with SW-620 colon and > 12.5 µM with T-47D breast.
